Drawing on a melting point compilation (Tetko et al.; mined from patent text by program, amines drawn as free bases though some values may be those of a salt), this text covers melting point for 89 compounds.

A word on the melting point: it is the temperature of the solid-liquid transition.

Bounds are passed on as bounds.

Compound `Cc1ccccc1C(=O)Nc1ccc(C(=O)N2CCCCc3sccc32)cc1` displayed a melting point of 181 to 182 °C.
`CNc1ncc(-c2cc(Cl)cc(Cl)c2Cl)c(N)n1` registered a melting point of 155 to 157 °C.
In the case of `CC(C)(C)OC(=O)N1C2CCC1CN(CCCNc1ccc(C#N)cc1)C2`, the melting point was in the range of 124 to 127 °C.
In the case of `Clc1nc2ccnn2c2ncccc12`, the melting point was determined as 160 °C.
Under `COc1cc2c(cc1Nc1ncc(Cl)c(Nc3ccccc3S(=O)(=O)C(C)C)n1)CCN(CC(=O)N1CCN(C)CC1)CC2` stands 170 °C; under `CC(C)(F)[C@H]1C(=O)N[C@@H]1CC(=O)OCc1ccccc1` (racemic), 112 to 116 °C.
Under `COc1ncccc1C(=O)NC1CNCCn2c1nc(-c1ccncn1)cc2=O` (racemic) stands 236 to 238 °C; under `COC(=O)c1cc(=O)c2oc3ccc(Cl)cc3c(=O)c2[nH]1`, 300 to 305 °C.
In turn, `CN(C)CCCN(C)C(=O)Nc1ccc(-c2nnc(CSCCOc3ccccc3)o2)cc1` had a melting point of 136 to 139 °C.
Under `CC(C)N1CCN(C(=O)c2ccc(-c3ccc(=O)n(C)n3)cc2)CC1` stands 131 to 132 °C; under `CNC(=O)N1CC(Oc2cccc(Br)c2)C1`, 134 to 135 °C.
Under `NC(c1ccccc1)C12CC(CN1Cc1ccccc1)C2` (centres undefined) stands 63.5 to 64 °C; under `CCc1nc(-c2ccc(OCCCn3cnc4ccccc43)cc2)no1`, 100 to 101 °C.
Take `CS(=O)(=O)c1cccc(NC(=O)c2cnn3c(C(F)(F)F)cc(-c4ccc(Cl)cc4)nc23)c1`: the melting point stood at 305 °C.
Under `FC(F)(F)c1ccc(/C=C/c2nc(COc3ccc(CCCn4ccnn4)cc3)co2)cc1` stands 157 to 158 °C; under `O=c1[nH]c2ccccc2n1CC1CCCN(CC(O)C2COc3ccccc3O2)C1` (centres undefined), 154 °C; under `COc1cc(C=CC(=O)OC2CC3CC(OC(=O)Cc4cccc(O)c4)CC2N3C)cc(OC)c1OC` (centres undefined), 53 to 57 °C.
Under `CCCCCCCCCCCCCCCCOCC(CO)COC(c1ccccc1)(c1ccccc1)c1ccccc1` (centres undefined) stands 38 °C.
In the case of `CC(C)(C)OC(=O)n1c2ccccc2c(=O)n1Cc1cccc(N)c1`, the melting point is 155 °C.
On to `COc1cccc(OC)c1-c1cc(C(=O)NC2(C(=O)O)C3CC4CC(C3)CC2C4)nn1-c1ccnc2cc(Cl)ccc12` (centres undefined), for which the melting point was over 260 °C.
`CCCc1c(OCCCCc2cccc(O)c2O)ccc(C(C)=O)c1O` gave a melting point of 103 to 105 °C.
In the case of `CCCC/C=C/C(=O)N(C)c1ccc(S(=O)(=O)NC2CCCCCC2)cc1`, the melting point was 114 °C.
The compound `COc1cc(OC)nc(Sc2c(NS(=O)(=O)CC#N)nc(C)n2C)n1` came in with a melting point of 223 to 225 °C.
Take `Clc1cccc2c(CN3CCN(c4cc5ccccc5cn4)CC3)n[nH]c12`: the melting point lay within 208 to 209 °C.
As to `OC1CC(CN2CCC(c3ccccc3)CC2)CCc2ccccc21` (centres undefined), the melting point was in the range of 48 to 50 °C.
Take `O=c1c2cccnc2[nH]c2ccnn12`: the melting point is over 300 °C.
For `COP(C)(=O)C1CC(c2ccccc2)=NO1` (centres undefined), the melting point was in the range of 72 to 74 °C.
Under `Cc1c(C)c2c(c(C)c1NC(=O)CC(C)(C)C)C(O)C(C)(C)O2` (centres undefined) stands 204 to 206 °C; under `Cc1c(Nc2ccc([N+](=O)[O-])cc2C(=O)O)cccc1C(F)(F)F`, 244 to 245 °C.
The compound `Fc1cc(-n2cnnn2)ccc1-c1ccc2oc(C3CCNCC3)nc2c1` yielded a melting point of 148 to 151 °C.
`CC(C)OC(=O)c1ncn2c1CN(C)C(=O)c1ccccc1-2`: the melting point fell in the range of 190 to 192 °C.
`O=C1c2ccccc2CCn2cc(SC(F)(F)F)cc21` showed a melting point of 77 to 78 °C.
Under `CN1CCN(CCO)Cc2ccc(Nc3ncc(Cl)c(N[C@@H]4CCCC[C@H]4NS(C)(=O)=O)n3)cc21` stands 181 to 190 °C.
`CCCSc1nc2ccc(Br)cc2c(=O)n1CCC`: the melting point lay in the range of 65 to 67 °C.
In the case of `COc1cc(C)nc2c(OCc3c(Cl)ccc(N(C)C(=O)CN4C(=O)c5ccccc5C4=O)c3Cl)cccc12`, the melting point lay in the range of 209 to 210 °C.
As to `CCCCCCCCCCCCCCn1ccc(C(=O)O)c1`, the melting point fell in the range of 66 to 67 °C.
For `C#CCc1c(Cl)nc(NC=O)nc1Cl`, the melting point was in the range of 127 to 128 °C.
Under `CCCCCC1=NNC(C)=C(C(=O)NN)C1c1ccccc1` (centres undefined) stands 161 °C; under `CNS(=O)(=O)Cc1ccc2[nH]cc(CCCN3C(=O)c4ccccc4C3=O)c2c1`, 58 to 66 °C.
Under `O=C1OCc2cc(C(F)(F)F)ccc21` stands 71 to 72 °C; under `Cc1ccc(-c2nc3ccc(C#N)cn3c2CN(C)C(=O)CC(C)C)cc1`, 151 to 153 °C; under `Cc1cc(Cl)ccc1N1CN(C)CN(C)C1=S`, 103 to 105 °C.
Take `O=C(NCc1ccccc1Cl)c1cccnc1Oc1cccc(F)c1`: the melting point lay in the range of 115 to 117 °C.
Under `CC12CCC(=O)C=C1CCC1C2CCC2(C)C(=CCC(=O)O)CCC12` (centres undefined) stands 266 to 270 °C; under `CCOC(=O)C(Cc1ccc(C(F)(F)F)cc1)C(=O)c1cccc(F)c1` (centres undefined), 50 to 51 °C.
`Cc1cccc(C=Cc2ccncc2)n1`: the melting point is 72 to 73 °C.
As to `O=C(CC(=O)C(F)(F)F)Nc1cc(-c2ccsc2)n[nH]1`, the melting point was in the range of 251 to 253 °C.
As to `CCCC(=O)Nc1n[nH]c2cc(Cl)c(-c3ccncc3)cc12`, the melting point stood at 260 °C.
Consider `O=C1NC(=O)C(Cc2ccc(OCc3nc4ncccc4[nH]3)cc2)S1` (centres undefined), for which the melting point was in the range of 247 to 248 °C.
In the case of `CCCCCc1ccc(NS(=O)(=O)c2ccc(N3CCNC3=O)cc2)cc1`, the melting point was 207 to 209 °C.
`O=c1[nH]c2cc(Cl)cc(Cl)c2c(=O)n1Cc1ccc(I)cc1` yielded a melting point of 314 to 316 °C.
`O=C1NCCN1c1ccc(F)cc1N1CCN(C/C=C/c2ccc(Cl)cc2)CC1` returned a melting point of 170 to 172 °C.
The compound `N#Cc1cnn2c(-c3cccc(C(F)(F)F)c3)ccnc12` returned a melting point of 141 to 142 °C.
`Cc1[nH]n(C2CCCC2C)c2nc(-c3ccncc3)nc(=O)c1-2` (centres undefined): the melting point fell in the range of 290 to 291 °C.
Under `CN1CCC(c2c[nH]c3ccc(C(=O)Cc4ccccc4)cc23)CC1` stands 69 °C.
With `CCCCc1nc(-c2nc(C)nc(C)n2)ccc1C`, the melting point worked out at 73.5 °C.
Consider `COc1c(CC(C)(C)C(=O)O)n(Cc2ccc(Cl)cc2)c2ccc(O)cc12`, for which the melting point was 137 °C.
Compound `CC(C)(C)c1cc(NC(=O)c2csc(-c3ccc(N)cc3)n2)cc(C(C)(C)C)c1O` showed a melting point of 267 to 268 °C.
`CCOc1cc2ncc(C#N)c(NCc3cccc(Br)c3)c2cc1OCC` returned a melting point of 156 to 159 °C.
In the case of `O=c1n(CCCC2CCCC2)ccn1-c1ccc(NS(=O)(=O)c2ccc3c(c2)CCC(CNCC(O)c2cccnc2)O3)cc1` (centres undefined), the melting point fell in the range of 90 to 92 °C.
In turn, `Cc1cc(CO)cc([N+](=O)[O-])c1` showed a melting point of 56.8 to 57.9 °C.
Consider `O=C1c2c(O)ccc(O)c2C(=O)c2c(NCCNCCO)ccc(NCCNCCO)c21`, for which the melting point was in the range of 175 to 177 °C.
For `O=C(c1cc2c(cc1F)OC(c1ccccc1Cl)(c1ccccc1Cl)O2)N1CCOCC1`, the melting point turned out to be 98 °C.
With `CC(Oc1ccc(Oc2ccc(C(F)(F)F)cc2)cc1)C(=O)OCC#N` (centres undefined), the melting point was 53 to 56 °C.
The compound `CCOC(=O)c1ccnc(OCc2nc(-c3ccco3)oc2C)c1` registered a melting point of 80 to 81 °C.
Under `COC(=O)c1nn(C2CCCCO2)cc1NC(=O)c1ccccn1` (centres undefined) stands 131 to 132 °C; under `CC(C)(C)c1cc(C(=O)c2cccnc2Cl)cc(C(C)(C)C)c1O`, 135 to 137 °C; under `CSc1nn2c(-n3ccnc3)cc(C)nc2c1S(=O)(=O)c1ccccc1`, over 230 °C.
Under `CCn1ncc2c(N(C)Cc3ccccc3)c3ccccc3nc21` stands 175 to 177 °C; under `O=c1[nH]c2c(c3nc(-c4ccccc4)nn13)CN(Cc1ccccc1)CC2`, 257 to 259 °C.
The compound `CCOC(=O)c1cc(Oc2ccc3c(C(=O)Nc4cccc(C(F)(F)F)c4)cccc3c2)ncn1` yielded a melting point of 194 °C.
Regarding `NC[C@@H]1CC[C@H](C(=O)O)C1` (relative stereo), the melting point lay within 186 to 188 °C.
Under `CC(=O)OCc1coc(-c2cccc(C3=Nc4ccc(-n5cccc5)cc4NC(=O)C3)c2)n1` stands 206 to 207 °C.
Under `COc1cc2c(c(C(=O)c3ccccc3)c1)NC(=O)C2` stands 154 °C.
As to `O=c1cc(Sc2ccccc2)cc[nH]1`, the melting point was determined as 202 °C.
`CN1CCN(C)C1=Nc1ccccc1N1CCOCC1`: the melting point lay within 133 to 134 °C.
Compound `CCN1CCC2(c3cccc(O)c3)Cc3[nH]c(C(=O)N4CCCC4)c(C)c3CC2C1` (centres undefined) showed a melting point of 224 to 226 °C.
For `Cn1c(C(F)(F)F)cc(=O)n(-c2c(F)cc(Cl)c3ccoc23)c1=O`, the melting point fell in the range of 127 to 128 °C.
For `O=c1occc2ccc(Cl)cc12`, the melting point is 110 to 111 °C.
Under `CC(C(=O)NCC1CCC1)(c1ccccc1)c1ccccc1` stands 79 °C; under `C[C@H]1COC(=O)N1c1nc(-c2ccc(C#N)cc2)cs1`, 205 to 207 °C; under `CCc1nnc2c(OC)nc3cc(OC)ccc3n12`, 184 to 188 °C.
`COc1cc(CN(C(N)=S)[C@@H](COC(=O)C(C)(C)C)Cc2ccccc2)ccc1OCCN` returned a melting point of 49 °C.
In the case of `CC(=O)Nc1ccc(CN2CCC(C(c3ccccc3)c3ccccc3)CC2)cc1`, the melting point was 182 to 183 °C.
`O=C(O)c1cccc(CC2COc3ccc(OCc4nc5cc(F)ccc5s4)cc3C2O)c1` (centres undefined): the melting point lay in the range of 208 to 210 °C.
`O=c1[nH]c2ccccc2cc1-c1csc(-c2ccncc2)n1`: the melting point lay within 241 to 243 °C.
`CCc1cc(O)cc(C)c1N` showed a melting point of 167 to 170 °C.
With `CCCOc1cc(C)c(C(=O)O)c(OCc2ccc(OCCc3nc(-c4ccccc4)oc3C)cc2)c1`, the melting point lay within 50 to 52 °C.
Compound `CCNC(=O)OCCCCCCCCC1CC2=C(C1)C(=O)C(OC)=C(OC)C2=O` gave a melting point of 85 to 86 °C.
